Like-named read-outs stand apart in the source and are kept apart here.
How the values were obtained:
Type in all cases: cell-based, human
Daudi cells = assay: Cell proliferation experiment, Daudi; settings: Daudi cells, read-out: Inhibitory activity IC50 on Daudi
Summary of the method: (§1)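 Log-phase cells seeded, then exposed 72 h to test compound in a 5-fold dilution series, duplicate wells per concentration. Growth read by Alamar blue fluorescence; […].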

MDA-MB-231 cells = assay: Cell proliferation experiment, MDA-MB-231; settings: read-out: Inhibitory activity IC50 on MDA-MB-231
Summary of the method: as §1

NCIH82 cells = assay: Cell proliferation experiment, NCI-H82; settings: read-out: Inhibitory activity IC50 on NCI-H82
Summary of the method: as §1

MV4;11 cells = assay: Cell proliferation experiment (Alamar blue, 72 h), MV4;11; settings: read-out: Inhibitory activity IC50 on MV4;11
Summary of the method: as §1

PC-3 = assay: Cell proliferation experiment, PC-3; settings: read-out: Inhibitory activity IC50 on PC-3
Summary of the method: as §1

[1] = Homo sapiens, MDA-MB-231, MDA-MB-231 cells
[2] = Homo sapiens, NCI-H82, NCI-H82 cells
[3] = Homo sapiens, MV4-11, MV4;11 cells

| SMILES | IC50 (Daudi cells; Homo sapiens, Daudi) [nM] | IC50 (MDA-MB-231 cells; [1]) [nM] | IC50 (NCIH82 cells; [2]) [nM] | IC50 (MV4;11 cells; [3]) [nM] | IC50 (PC-3; Homo sapiens, PC-3, PC-3 cells) [nM] | IC50 (Daudi cells) [nM] | IC50 (PC-3; PC-3 cells) [nM] | IC50 (NCIH82 cells; NCI-H82 cells) [nM] | IC50 (MDA-MB-231 cells; MDA-MB-231 cells) [nM] | IC50 (MV4;11 cells; MV4;11 cells) [nM] |
| --- | --- | --- | --- | --- | --- | --- | --- | --- | --- | --- |
| CNC(=O)c1ccccc1Nc1nc(Nc2ccc(N3CCN(C(=O)NCCCCOCCCCNCC(=O)Nc4ccc5c(c4)CN(C4CCC(=O)NC4=O)C5=O)CC3)cc2)ncc1Cl (stereo not shown) [UB-181049] | 10 to 100 | > 1000 | 10 to 100 | 10 to 100 | 100 to 1000 |  |  |  |  |  |
| CNC(=O)c1ccccc1Nc1nc(Nc2ccc(N3CCN(C(=O)NCCNCCC(=O)Nc4ccc5c(c4)CN(C4CCC(=O)NC4=O)C5=O)CC3)cc2)ncc1Cl (stereo not shown) [UB-181054] | 10 to 100 | > 1000 | 100 to 1000 | < 10 | > 1000 |  |  |  |  |  |
| CNC(=O)c1ccccc1Nc1nc(Nc2ccc(N3CCN(C(=O)NCCCOCC(O)COCC#Cc4ccc5c(c4)CN(C4CCC(=O)NC4=O)C5=O)CC3)cc2)ncc1Cl (stereo not shown) [UB-181076] | 10 to 100 | > 1000 | 100 to 1000 | < 10 | > 1000 |  |  |  |  |  |
| CNC(=O)c1ccccc1Nc1nc(Nc2ccc(C3CCN(C(=O)N[C@H]4CC[C@@H](NCCOCCC#Cc5ccc6c(c5)CN(C5CCC(=O)NC5=O)C6=O)CC4)CC3)cc2)ncc1Cl (stereo partly shown) [UB-181122] | 100 to 1000 | 100 to 1000 | 100 to 1000 | < 10 | 100 to 1000 |  |  |  |  |  |
| CNC(=O)c1ccccc1Nc1nc(Nc2ccc(N3CCN(C(=O)NC4CCC(N[C@H]5CC[C@@H](OCC#Cc6ccc7c(c6)CN(C6CCC(=O)NC6=O)C7=O)CC5)CC4)CC3)cc2)ncc1Cl (stereo partly shown) [UB-181127] | 10 to 100 | 10 to 100 | 10 to 100 | < 10 | 10 to 100 |  |  |  |  |  |
| CNC(=O)c1ccccc1Nc1nc(Nc2ccc(N3CCN(C(=O)NC4CCC(NC5CCC(OCC#Cc6ccc7c(c6)CN(C6CCC(=O)NC6=O)C7=O)CC5)CC4)CC3)cc2)ncc1Cl (stereo not shown) [UB-181131] | 100 to 1000 | > 1000 | 10 to 100 | 10 to 100 | > 1000 |  |  |  |  |  |
| CNC(=O)c1ccccc1Nc1nc(Nc2ccc(C3CCN(C(=O)N[C@H]4CC[C@H](NCCC#Cc5ccc6c(c5)CN(C5CCC(=O)NC5=O)C6=O)CC4)CC3)cc2)ncc1Cl (stereo partly shown) [UB-181137] | 100 to 1000 | 100 to 1000 | 100 to 1000 | < 10 | 10 to 100 |  |  |  |  |  |
| CNC(=O)c1ccccc1Nc1nc(Nc2ccc(C3CCN(C(=O)N[C@H]4CC[C@@H](NCCC#Cc5ccc6c(c5)CN(C5CCC(=O)NC5=O)C6=O)CC4)CC3)cc2)ncc1Cl (stereo partly shown) [UB-181168] | 10 to 100 | 100 to 1000 | 100 to 1000 | < 10 | 100 to 1000 |  |  |  |  |  |
| CNC(=O)c1ccccc1Nc1nc(Nc2ccc(N3CCN(C(=O)N[C@H]4CC[C@@H](N[C@H]5C[C@H](C#Cc6ccc7c(c6)CN(C6CCC(=O)NC6=O)C7=O)C5)CC4)CC3)cc2)ncc1Cl (stereo partly shown) [UB-181181] | > 1000 | > 1000 | 100 to 1000 | 10 to 100 | 10 to 100 |  |  |  |  |  |
| NC(=O)c1ccccc1Nc1nc(Nc2ccc(C3CCN(C(=O)N[C@H]4CC[C@@H](NCCC#Cc5ccc6c(c5)CN(C5CCC(=O)NC5=O)C6=O)CC4)CC3)cc2)ncc1Cl (stereo partly shown) [UB-181182] | 100 to 1000 | 100 to 1000 | 10 to 100 | < 10 | 100 to 1000 |  |  |  |  |  |
| CNC(=O)c1ccccc1Nc1nc(Nc2ccc(N3CCC(C(=O)N[C@H]4CC[C@@H](NCCC#Cc5ccc6c(c5)CN(C5CCC(=O)NC5=O)C6=O)CC4)CC3)cc2)ncc1Cl (stereo partly shown) [UB-181184] | 10 to 100 | 100 to 1000 | 10 to 100 | < 10 | 10 to 100 |  |  |  |  |  |
| CNC(=O)c1ccccc1Nc1nc(Nc2ccc(N3CCN(C(=O)N[C@H]4CC[C@@H](N(C)CCC#Cc5ccc6c(c5)CN(C5CCC(=O)NC5=O)C6=O)CC4)CC3)cc2)ncc1Cl (stereo partly shown) [UB-181185] | 10 to 100 | 10 to 100 | 10 to 100 | < 10 | 10 to 100 |  |  |  |  |  |
| CNC(=O)c1ccccc1Nc1nc(Nc2ccc(N3CCC(C(=O)N[C@H]4CC[C@@H](NCCC#Cc5cccc6c5CN(C5CCC(=O)NC5=O)C6=O)CC4)CC3)cc2)ncc1Cl (stereo partly shown) [UB-181186] | 10 to 100 | 100 to 1000 | 10 to 100 | < 10 | < 10 |  |  |  |  |  |

More lines, now with the values ahead:

| IC50 (Daudi cells; Homo sapiens, Daudi) [nM] | IC50 (MDA-MB-231 cells; [1]) [nM] | IC50 (NCIH82 cells; [2]) [nM] | IC50 (MV4;11 cells; [3]) [nM] | IC50 (PC-3; Homo sapiens, PC-3, PC-3 cells) [nM] | IC50 (Daudi cells) [nM] | IC50 (PC-3; PC-3 cells) [nM] | IC50 (NCIH82 cells; NCI-H82 cells) [nM] | IC50 (MDA-MB-231 cells; MDA-MB-231 cells) [nM] | IC50 (MV4;11 cells; MV4;11 cells) [nM] | SMILES |
| --- | --- | --- | --- | --- | --- | --- | --- | --- | --- | --- |
|  | 100 to 1000 | 100 to 1000 | < 10 |  | 10 to 100 | 10 to 100 |  |  |  | CNC(=O)c1ccccc1Nc1nc(Nc2ccc(N3CCN(C(=O)N[C@H]4CC[C@@H](NCCOCCC#Cc5cccc6c5CN(C5CCC(=O)NC5=O)C6=O)CC4)CC3)cc2)ncc1Cl (stereo partly shown) [UB-181078] |
| 10 to 100 | 100 to 1000 |  | < 10 | 10 to 100 |  |  | 100 to 1000 |  |  | CNC(=O)c1ccccc1Nc1nc(Nc2ccc(N3CCN(C(=O)N[C@H]4CC[C@@H](NCCOCCC#Cc5ccc6c(c5)CN(C5CCC(=O)NC5=O)C6=O)CC4)CC3)cc2)ncc1Cl (stereo partly shown) [UB-181080] |
| 10 to 100 | 100 to 1000 | 10 to 100 | < 10 | 10 to 100 |  |  |  |  |  | CNC(=O)c1ccccc1Nc1nc(Nc2ccc(N3CCN(C(=O)N[C@H]4CC[C@@H](NCCCC#Cc5cccc6c5CN(C5CCC(=O)NC5=O)C6=O)CC4)CC3)cc2)ncc1Cl (stereo partly shown) [UB-181100] |
| 10 to 100 | 100 to 1000 | 10 to 100 | < 10 | 100 to 1000 |  |  |  |  |  | CNC(=O)c1ccccc1Nc1nc(Nc2ccc(N3CCN(C(=O)N[C@H]4CC[C@@H](NCCCC#Cc5ccc6c(c5)CN(C5CCC(=O)NC5=O)C6=O)CC4)CC3)cc2)ncc1Cl (stereo partly shown) [UB-181101] |
| 100 to 1000 | > 1000 | 100 to 1000 | 10 to 100 | > 1000 |  |  |  |  |  | CNC(=O)c1ccccc1Nc1nc(Nc2ccc(N3CCN(C(=O)N[C@H]4CC[C@@H](NCCCCOCC(=O)Nc5cccc6c5CN(C5CCC(=O)NC5=O)C6=O)CC4)CC3)cc2)ncc1Cl (stereo partly shown) [UB-181102] |
| 10 to 100 | 100 to 1000 | 10 to 100 | < 10 | 10 to 100 |  |  |  |  |  | CNC(=O)c1ccccc1Nc1nc(Nc2ccc(N3CCN(C(=O)N[C@H]4CC[C@@H](NCCC#Cc5ccc6c(c5)CN(C5CCC(=O)NC5=O)C6=O)CC4)CC3)cc2)ncc1Cl (stereo partly shown) [UB-181103] |
| 10 to 100 | 100 to 1000 | 10 to 100 | < 10 | 10 to 100 |  |  |  |  |  | CNC(=O)c1ccccc1Nc1nc(Nc2ccc(N3CCN(C(=O)N[C@H]4CC[C@@H](NCCC#Cc5cccc6c5CN(C5CCC(=O)NC5=O)C6=O)CC4)CC3)cc2)ncc1Cl (stereo partly shown) [UB-181104] |
|  |  |  |  |  | 10 to 100 | 10 to 100 | 10 to 100 | 100 to 1000 | < 10 | CNC(=O)c1ccccc1Nc1nc(Nc2ccc(N3CCN(C(=O)N[C@H]4CC[C@@H](NCCOCCC#Cc5ccc6c(c5)CN(C5CCC(=O)NC5=O)C6=O)CC4)CC3)cc2)ncc1Cl (stereo partly shown) [UB-181115] |
|  |  |  |  |  | 100 to 1000 | 100 to 1000 | 100 to 1000 | 100 to 1000 | < 10 | CNC(=O)c1ccccc1Nc1nc(Nc2ccc(N3CCN(C(=O)N[C@H]4CC[C@@H](NCCOCCC#Cc5cccc6c5CN(C5CCC(=O)NC5=O)C6=O)CC4)CC3)cc2)ncc1Cl (stereo partly shown) [UB-181121] |
| 100 to 1000 | 100 to 1000 | 10 to 100 | < 10 | 10 to 100 |  |  |  |  |  | CNC(=O)c1ccccc1Nc1nc(Nc2ccc(C3CCN(C(=O)N[C@H]4CC[C@H](NCCC#Cc5cccc6c5CN(C5CCC(=O)NC5=O)C6=O)CC4)CC3)cc2)ncc1Cl (stereo partly shown) [UB-181138] |
| 100 to 1000 | 100 to 1000 | 100 to 1000 | < 10 | 100 to 1000 |  |  |  |  |  | CNC(=O)c1ccccc1Nc1nc(Nc2ccc(N3CCN(C(=O)N[C@H]4CC[C@@H](NCCOCCC#Cc5cccc6c5CN(C5CCC(=O)NC5=O)C6=O)CC4)CC3)nc2)ncc1Cl (stereo partly shown) [UB-181141] |
| 100 to 1000 | 100 to 1000 | 100 to 1000 | < 10 | 100 to 1000 |  |  |  |  |  | CNC(=O)c1ccccc1Nc1nc(Nc2ccc(N3CCN(C(=O)N[C@H]4CC[C@@H](NCCOCCC#Cc5ccc6c(c5)CN(C5CCC(=O)NC5=O)C6=O)CC4)CC3)nc2)ncc1Cl (stereo partly shown) [UB-181142] |
| 100 to 1000 | > 1000 | 100 to 1000 | 10 to 100 | 10 to 100 |  |  |  |  |  | CNC(=O)c1ccccc1Nc1nc(Nc2ccc(N3CCN(C(=O)N[C@H]4CC[C@@H](NCCC#Cc5ccc6c(c5)CN(C5CCC(=O)NC5=O)C6=O)CC4)CC3)nc2)ncc1Cl (stereo partly shown) [UB-181169] |
| > 1000 | > 1000 | > 1000 | 10 to 100 | 10 to 100 |  |  |  |  |  | CNC(=O)c1ccccc1Nc1nc(Nc2ccc(N3CCN(C(=O)N[C@H]4CC[C@@H](NCCC#Cc5cccc6c5CN(C5CCC(=O)NC5=O)C6=O)CC4)CC3)nc2)ncc1Cl (stereo partly shown) [UB-181173] |
| 10 to 100 | > 1000 | > 1000 | 10 to 100 | 10 to 100 |  |  |  |  |  | CNC(=O)c1ccccc1Nc1nc(Nc2ccc(N3CCN(C(=O)N[C@H]4CC[C@H](NCCC#Cc5ccc6c(c5)CN(C5CCC(=O)NC5=O)C6=O)CC4)CC3)nc2)ncc1Cl (stereo partly shown) [UB-181174] |
| > 1000 | > 1000 | 100 to 1000 | 10 to 100 | 10 to 100 |  |  |  |  |  | CNC(=O)c1ccccc1Nc1nc(Nc2ccc(N3CCN(C(=O)NC4CCC(NCCC#Cc5cccc6c5CN(C5CCC(=O)NC5=O)C6=O)CC4)CC3)cc2)ncc1Cl (stereo not shown) [UB-181187] |

Source: patent US20230210999A1, “TARGETED PROTEASE DEGRADATION (TED) PLATFORM” (EUBULUS BIOTHERAPEUTICS INC., priority 2020, published 2023)
